Patent US12152038B2, “Vasopressin receptor antagonists and products and methods related thereto” (Neumora Therapeutics, Inc., priority 2017, dated 2024)

Legend:
[1] = target: T1, human Oxytocin Receptor (hOTR) (Homo sapiens, UniProt P30559); assay: Oxytocin receptor (OTR) antagonist assay (FLIPR calcium, CHEM-1-hOTR cells); type: cell-based
T1 construct: host or cells: CHEM-1 (ready-to-assay frozen cells)
T1 sequence (P30559 1-389): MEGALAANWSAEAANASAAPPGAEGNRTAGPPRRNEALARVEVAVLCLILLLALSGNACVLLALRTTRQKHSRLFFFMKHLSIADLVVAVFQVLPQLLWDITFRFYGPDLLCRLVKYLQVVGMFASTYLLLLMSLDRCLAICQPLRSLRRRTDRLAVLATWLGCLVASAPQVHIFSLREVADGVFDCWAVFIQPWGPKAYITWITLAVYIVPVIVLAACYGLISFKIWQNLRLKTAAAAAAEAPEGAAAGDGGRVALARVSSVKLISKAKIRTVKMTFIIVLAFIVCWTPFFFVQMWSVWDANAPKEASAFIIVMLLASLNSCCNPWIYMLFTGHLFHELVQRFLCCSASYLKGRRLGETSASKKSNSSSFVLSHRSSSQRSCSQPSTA
Outline: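 CHEM-1 cells expressing human OTR were loaded with Calcium-6 dye in HBSS/20 mM HEPES and preincubated with compound (10-point, 1:3 series) for 15 min at 37° C. Cells were then challenged with oxytocin at its daily-determined EC80. Calcium fluorescence was read on FLIPR for 3 min after each addition.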

[2] = target: T2, human Arginine Vasopressin Receptor V2 (AVPR2) (Homo sapiens, UniProt P30518); assay: Vasopressin V2 receptor antagonist assay (TR-FRET cAMP, 1321N1 cells); type: cell-based
T2 construct: host or cells: 1321N1 (cAMPZen V2 assay ready frozen cells)
T2 sequence (P30518 whole entry): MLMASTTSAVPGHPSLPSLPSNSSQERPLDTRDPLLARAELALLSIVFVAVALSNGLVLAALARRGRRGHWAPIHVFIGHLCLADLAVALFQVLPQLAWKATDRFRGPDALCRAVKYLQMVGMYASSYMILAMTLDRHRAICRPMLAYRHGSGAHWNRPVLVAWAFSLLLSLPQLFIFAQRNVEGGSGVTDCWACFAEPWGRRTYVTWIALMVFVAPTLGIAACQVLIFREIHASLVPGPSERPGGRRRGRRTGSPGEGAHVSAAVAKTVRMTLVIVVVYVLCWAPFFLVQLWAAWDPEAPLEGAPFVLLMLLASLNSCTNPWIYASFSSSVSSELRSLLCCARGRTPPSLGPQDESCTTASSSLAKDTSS

IC50 [1] | IC50 [2] | SMILES
< 100 nM | < 100 nM | CCC1COc2cc(Cl)ccc2N1C(=O)N1CC2(C1)CN(c1ccc(F)cn1)C2 (single isomer, unassigned) [1-55-B]
– | < 100 nM | CC1COc2cc(Cl)ccc2N1C(=O)N1CC2(C1)CN(c1ncccc1F)C2 (single isomer, unassigned) [1-57-A]
< 100 nM | < 100 nM | CC1COc2cc(Cl)ccc2N1C(=O)N1CC2(C1)CN(c1cnccn1)C2 (single isomer, unassigned) [1-58-B]
100 to 500 nM | 100 to 500 nM | COc1ccc2c(c1)OCC(C)N2C(=O)N1CC2(C1)CN(c1ccc(F)cn1)C2 (single isomer, unassigned) [1-59-B]
< 100 nM | < 100 nM | CC1COc2cc(Cl)ccc2N1C(=O)N1CC2(C1)CN(c1ccccn1)C2 (single isomer, unassigned) [1-60-B]
100 to 500 nM | ≥ 1000 nM | CC1COc2cc(F)ccc2N1C(=O)N1CC2(C1)CN(c1cnccn1)C2 (single isomer, unassigned) [1-65-B]
100 to 500 nM | 500 to 1000 nM | CC1COc2cc(F)ccc2N1C(=O)N1CC2(C1)CN(c1ccccn1)C2 (single isomer, unassigned) [1-66-B]
100 to 500 nM | 100 to 500 nM | CC1COc2cc(F)ccc2N1C(=O)N1CC2(C1)CN(c1ncccc1F)C2 (single isomer, unassigned) [1-67-A]
– | ≥ 1000 nM | CC1COc2cc(Cl)ccc2N1C(=O)N1CC2(C1)CN(c1ccc(F)cn1)C2 (single isomer, unassigned) [1-73-A]
< 100 nM | < 100 nM | CC1COc2cc(Cl)ccc2N1C(=O)N1CC2(C1)CN(c1ccc(F)cn1)C2 (single isomer, unassigned) [1-73-B]
≥ 1000 nM | ≥ 1000 nM | O=C(N1CC2(C1)CN(c1ccc(F)cn1)C2)N1CCC(O)c2cc(Cl)ccc21 (single isomer, unassigned) [13-1-B]
100 to 500 nM | 100 to 500 nM | CC1COc2cc(Cl)ccc2N1C(=O)N1CC2(C1)CN(c1ncc(F)cn1)C2 (single isomer, unassigned) [18-2-B]
– | < 100 nM | Cc1cnc(N2CC3(CN(C(=O)N4c5ccc(Cl)cc5OCC4C)C3)C2)nc1 (single isomer, unassigned) [20-13-B]
– | 500 to 1000 nM | CC1COc2cc(Cl)ccc2N1C(=O)N1CC2(C1)CN(c1cc(=O)n(C)cn1)C2 (single isomer, unassigned) [20-14-B]
500 to 1000 nM | < 100 nM | CC1COc2cc(Cl)ccc2N1C(=O)N1CC2(C1)CN(c1nn(C)c3ncccc13)C2 (single isomer, unassigned) [20-15-B]
500 to 1000 nM | 100 to 500 nM | Cc1cccc(N2CC3(CN(C(=O)N4CCOc5cc(Cl)ccc54)C3)C2)n1 [1-3]
– | ≥ 1000 nM | O=C(N1CC2(C1)CN(c1cnc(F)cn1)C2)N1CCOc2cc(Cl)ccc21 [1-18]
– | ≥ 1000 nM | Cc1cnc(N2CC3(CN(C(=O)N4CCOc5cc(Cl)ccc54)C3)C2)cn1 [1-20]
≥ 1000 nM | ≥ 1000 nM | Cc1cncc(N2CC3(CN(C(=O)N4CCOc5cc(Cl)ccc54)C3)C2)n1 [1-22]
500 to 1000 nM | 500 to 1000 nM | Cc1nc(N2CC3(CN(C(=O)N4CCOc5cc(Cl)ccc54)C3)C2)ccc1F [1-30]
100 to 500 nM | ≥ 1000 nM | N#Cc1cccc(N2CC3(CN(C(=O)N4CCOc5cc(Cl)ccc54)C3)C2)n1 [1-39]
– | ≥ 1000 nM | COc1nccnc1N1CC2(CN(C(=O)N3CCOc4cc(Cl)ccc43)C2)C1 [1-43]

IC50 [1] | IC50 [2] | SMILES
– | ≥ 1000 nM | Cc1cc(F)nc(N2CC3(CN(C(=O)N4CCOc5cc(Cl)ccc54)C3)C2)c1 [1-45]
– | ≥ 1000 nM | O=C(N1CC2(C1)CN(c1ccc(F)c(F)n1)C2)N1CCOc2cc(Cl)ccc21 [1-49]
≥ 1000 nM | ≥ 1000 nM | O=C(N1CC2(C1)CN(c1cc(F)cc(F)n1)C2)N1CCOc2cc(Cl)ccc21 [1-51]
– | ≥ 1000 nM | N#Cc1ccnc(N2CC3(CN(C(=O)N4CCOc5cc(Cl)ccc54)C3)C2)c1 [1-53]
< 100 nM | 100 to 500 nM | CC1COc2cc(Cl)ccc2N1C(=O)N1CC2(C1)CN(c1ccccn1)C2 (stereo not drawn) [1-60]
– | ≥ 1000 nM | O=C(N1CC2(C1)CN(c1ccc(F)cn1)C2)N1CCOc2cc(F)ccc21 [1-64]
100 to 500 nM | ≥ 1000 nM | CC1COc2cc(F)ccc2N1C(=O)N1CC2(C1)CN(c1ncccc1F)C2 (stereo not drawn) [1-67]
– | ≥ 1000 nM | COc1ccc(N2CC3(CN(C(=O)N4CCOc5cc(Cl)ccc54)C3)C2)nc1 [1-68]
≥ 1000 nM | ≥ 1000 nM | O=C(N1CC2(C1)CN(c1cccc(F)n1)C2)N1CCOc2cc(Cl)ccc21 [1-69]
≥ 1000 nM | ≥ 1000 nM | O=C(N1CC2(C1)CN(c1cc(F)ccn1)C2)N1CCOc2cc(Cl)ccc21 [1-70]
– | ≥ 1000 nM | O=C(N1CC2(C1)CN(c1cccnn1)C2)N1CCOc2cc(Cl)ccc21 [1-71]
500 to 1000 nM | ≥ 1000 nM | CC1COc2cc(Cl)ccc2N1C(=O)N1CC2(C1)CN(c1noc3ccccc13)C2 (stereo not drawn) [21-1, (6-(benzo[d]isoxazol-3-yl)-2,6-diazaspiro[3.3]heptan-2-yl)(7-chloro-3-methyl-2,3-dihydro-4H-benzo[b][1,4]oxazin-4-yl)methanone]
100 to 500 nM | ≥ 1000 nM | CC1COc2cc(Cl)ccc2N1C(=O)N1CC2(C1)CN(c1ncccc1C#N)C2 (stereo not drawn) [21-2]
< 100 nM | < 100 nM | Cc1cncc(N2CC3(CN(C(=O)N4c5ccc(Cl)cc5OCC4C)C3)C2)n1 (stereo not drawn) [21-3]
500 to 1000 nM | 100 to 500 nM | Cc1cnnc(N2CC3(CN(C(=O)N4c5ccc(Cl)cc5OCC4C)C3)C2)c1 (stereo not drawn) [21-4]
100 to 500 nM | 100 to 500 nM | CC1COc2cc(Cl)ccc2N1C(=O)N1CC2(C1)CN(c1ncncc1F)C2 (stereo not drawn) [21-5]
100 to 500 nM | ≥ 1000 nM | CC1COc2cc(Cl)ccc2N1C(=O)N1CC2(C1)CN(c1ccncn1)C2 (stereo not drawn) [21-6]
100 to 500 nM | 100 to 500 nM | Cc1nccc(N2CC3(CN(C(=O)N4c5ccc(Cl)cc5OCC4C)C3)C2)n1 (stereo not drawn) [21-8]
≥ 1000 nM | 100 to 500 nM | CCc1cnc(N2CC3(CN(C(=O)N4c5ccc(Cl)cc5OCC4C)C3)C2)nc1 (stereo not drawn) [21-9]
500 to 1000 nM | 100 to 500 nM | CC1COc2cc(Cl)ccc2N1C(=O)N1CC2(C1)CN(c1nccc(C(F)(F)F)n1)C2 (stereo not drawn) [21-10]
– | 500 to 1000 nM | Cc1cc(N2CC3(CN(C(=O)N4c5ccc(Cl)cc5OCC4C)C3)C2)ncn1 (stereo not drawn) [21-11]
